{"source": "patent US5272175A", "about": "“Substituted tyrosyl diamide compounds” (priority 1992, dated 1993)", "key": {"δ opioid receptors": {"target": "δ opioid receptors (Rattus norvegicus, UniProt P33533)", "sequence (P33533 whole entry)": "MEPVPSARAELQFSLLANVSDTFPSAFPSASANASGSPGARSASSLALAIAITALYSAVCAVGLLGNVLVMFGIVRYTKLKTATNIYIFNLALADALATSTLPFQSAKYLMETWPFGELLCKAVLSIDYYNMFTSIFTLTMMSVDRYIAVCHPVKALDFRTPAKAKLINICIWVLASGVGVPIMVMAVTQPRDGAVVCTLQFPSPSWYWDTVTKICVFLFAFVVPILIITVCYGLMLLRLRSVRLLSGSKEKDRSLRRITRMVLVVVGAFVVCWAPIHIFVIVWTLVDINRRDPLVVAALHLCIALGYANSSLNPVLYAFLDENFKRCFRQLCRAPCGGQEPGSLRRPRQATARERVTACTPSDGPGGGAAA", "assay": "Opiate Binding Assay, displacement of 3[H]-DSLET from δ receptors", "conditions": "for Mean IC50 μ/δ Ratio: ratio of mean IC50 values for μ and δ, above 1.0 = more δ specific"}, "μ opioid receptors": {"target": "μ opioid receptors (Rattus norvegicus, UniProt P33535)", "sequence (P33535 whole entry)": "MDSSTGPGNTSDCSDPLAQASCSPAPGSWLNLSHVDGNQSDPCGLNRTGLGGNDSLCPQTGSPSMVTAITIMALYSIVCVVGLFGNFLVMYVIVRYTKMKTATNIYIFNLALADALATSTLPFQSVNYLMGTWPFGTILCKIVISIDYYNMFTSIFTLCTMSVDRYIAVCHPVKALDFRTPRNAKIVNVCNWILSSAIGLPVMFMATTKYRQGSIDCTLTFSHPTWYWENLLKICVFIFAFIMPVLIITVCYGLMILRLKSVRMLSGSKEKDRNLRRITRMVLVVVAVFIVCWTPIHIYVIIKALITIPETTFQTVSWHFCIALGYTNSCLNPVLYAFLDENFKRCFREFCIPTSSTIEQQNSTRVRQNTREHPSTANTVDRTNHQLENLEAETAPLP", "assay": "Opiate Binding Assay, displacement of 3[H]-DAMPGO from μ receptors"}, "[1]": {"conditions": "read-out: Mean IC50 Value, δ, rat forebrain membranes, 3[H]-DSLET 1.0 nM, 37° C., pH 7.4"}, "[2]": {"conditions": "read-out: Mean IC50 Value, μ, rat forebrain membranes, 3[H]-DAMPGO 2.0 nM, 37° C., pH 7.4"}}, "note": "Structures can show the parent of a compound that is named as a salt. Where two headings read alike, the source gives them in different places.", "data": [{"smiles": "Cc1cc(O)cc(C)c1C[C@H](NC(=O)OC(C)(C)C)C(=O)NC(C)(C)CN", "note": "[Example 4, 1,1-Dimethylethyl[1S-[[(2-amino-1,1-dimethylethyl)amino]carbonyl]-2-(4-hydroxy-2,6-dimethylphenyl)ethyl]carbamate]", "values": [{"measurement": "Mean IC50 μ/δ Ratio", "setting": "δ opioid receptors", "result": 10}, {"measurement": "IC50", "setting": "δ opioid receptors; [1]", "result": 100, "unit": "nM"}, {"measurement": "IC50", "setting": "μ opioid receptors; [2]", "result": 1000, "unit": "nM"}]}, {"smiles": "CC(=O)N[C@@H](Cc1ccc(F)cc1)C(=O)NCC(C)(C)NC(=O)[C@@H](N)Cc1c(C)cc(O)cc1C", "note": "[Example 6, αS-(Acetylamino)-N-2-[2S-amino-3-(4-hydroxy-2,6-dimethylphenyl) -1-oxopropyl]amino]-2-methyloropyl]-4-fluorobenzenepropanamide, monohydrochloride]", "values": [{"measurement": "IC50", "setting": "δ opioid receptors", "result": 1.8, "unit": "nM"}, {"measurement": "Mean IC50 μ/δ Ratio", "setting": "δ opioid receptors", "result": 0.6}, {"measurement": "IC50", "setting": "μ opioid receptors", "result": 1.1, "unit": "nM"}]}, {"smiles": "Cc1cc(O)cc(C)c1C[C@H](N)C(=O)NC(C)(C)CNC(=O)[C@H](Cc1ccc(F)cc1)NC(=O)OCc1ccccc1", "note": "[Example 8, Phenylmethyl[1S-[[[2-[[2S-amino-3-(4-hydroxy-2,6-dimethylohenyl)-1-oxopropyllamino]-methylpropyl]amino]-carbonyl]-2-(4-fluorophenyl)ethyl]carbamate. monohydrochloride]", "values": [{"measurement": "IC50", "setting": "δ opioid receptors", "result": 28, "unit": "nM"}, {"measurement": "IC50", "setting": "μ opioid receptors", "result": "< 10", "unit": "nM"}]}, {"smiles": "Cc1cc(O)cc(C)c1C[C@H](NC(=O)OC(C)(C)C)C(=O)NC(C)(C)CNC(=O)[C@@H](N)Cc1ccccc1", "note": "[Example 11, acetic acid salt]", "values": [{"measurement": "IC50", "setting": "δ opioid receptors", "result": 100, "unit": "nM"}, {"measurement": "Mean IC50 μ/δ Ratio", "setting": "δ opioid receptors", "result": 10}, {"measurement": "IC50", "setting": "μ opioid receptors", "result": 1000, "unit": "nM"}]}, {"smiles": "Cc1cc(O)cc(C)c1C[C@H](N)C(=O)NC(C)(C)CNC(=O)[C@@H](N)Cc1ccccc1", "note": "[Example 12, αS-amino-N-[2-[2S-amino-3-(4-hydroxy-2,6-dimethylphenyl) -1-oxopropyl]amino]-2-methylpropyl]benzenepropanamide, dihydrochloride]", "values": [{"measurement": "IC50", "setting": "δ opioid receptors", "result": 31.4, "unit": "nM"}, {"measurement": "Mean IC50 μ/δ Ratio", "setting": "δ opioid receptors", "result": 0.1}, {"measurement": "IC50", "setting": "μ opioid receptors", "result": 3.4, "unit": "nM"}]}, {"smiles": "Cc1cc(O)cc(C)c1C[C@H](N)C(=O)NC(C)(C)CNC(=O)[C@H](Cc1ccccc1)NC(=O)C(F)(F)F", "note": "[Example 14, αS-Amino-N-[1,1-dimethyl-2-[[1-oxo-3-phenyl-2S-[[trifluoroacetyl-amino]propyl]aminoethyl]-4-hydroxy-2,6-dimethylbenzenepropanamide, hydrochloride]", "values": [{"measurement": "IC50", "setting": "δ opioid receptors", "result": 0.64, "unit": "nM"}, {"measurement": "Mean IC50 μ/δ Ratio", "setting": "δ opioid receptors", "result": 0.8}, {"measurement": "IC50", "setting": "μ opioid receptors", "result": 0.54, "unit": "nM"}]}, {"smiles": "CC(=O)N[C@H](C(=O)NCC(C)(C)NC(=O)[C@@H](N)Cc1c(C)cc(O)cc1C)c1ccccc1", "note": "[Example 20, N-[2-[[2S-(acetylamino)-2-phenylacetyl]amino]-1,1-dimethylethyl]-αS-amino-4-hydroxy-2,6-dimethylbenzenepropanamide, hydrochloride]", "values": [{"measurement": "IC50", "setting": "δ opioid receptors", "result": 19.3, "unit": "nM"}, {"measurement": "Mean IC50 μ/δ Ratio", "setting": "δ opioid receptors", "result": 0.06}, {"measurement": "IC50", "setting": "μ opioid receptors", "result": 1.2, "unit": "nM"}]}, {"smiles": "Cc1cc(O)cc(C)c1C[C@H](N)C(=O)NCCNC(=O)[C@H](Cc1ccccc1)NC(=O)OCc1ccccc1", "note": "[Example 22, Phenylmethyl[1S-[[(2-(8 [2S-amino-3-[4-hydroxy-2,6-dimethylphenyl) -1-oxopropyl]ethylaminocarbonyl-2-phenylethylcarbamate, monohydrochloride]", "values": [{"measurement": "IC50", "setting": "δ opioid receptors", "result": 3.1, "unit": "nM"}, {"measurement": "Mean IC50 μ/δ Ratio", "setting": "δ opioid receptors", "result": 0.8}, {"measurement": "IC50", "setting": "μ opioid receptors", "result": 2.6, "unit": "nM"}]}, {"smiles": "Cc1cc(O)cc(C)c1C[C@H](NC(=O)OC(C)(C)C)C(=O)NCCNC(=O)[C@@H](N)Cc1ccccc1", "note": "[Example 23, 1,1-dimethylethyl[1S-[[[2-[[(2S-amino-l-oxo-3-phenylpropyl)amino]ethyl]amino]carbonyl]-2-(4-hydroxy-2,6-dimethylohenyl)ethyl]carbamate, acetate (salt)]", "values": [{"measurement": "IC50", "setting": "δ opioid receptors", "result": 100, "unit": "nM"}, {"measurement": "Mean IC50 μ/δ Ratio", "setting": "δ opioid receptors", "result": 10}, {"measurement": "IC50", "setting": "μ opioid receptors", "result": 1000, "unit": "nM"}]}, {"smiles": "Cc1cc(O)cc(C)c1C[C@H](N)C(=O)NCCNC(=O)[C@@H](N)Cc1ccccc1", "note": "[Example 24, αS-amino-N-[2-[[2S-amino-3-(4-hydroxy-2,6-dimethylphenyl) -1-oxopropyl]amino]ethyl]benzenepropanamide, dihydrochloride]", "values": [{"measurement": "IC50", "setting": "δ opioid receptors", "result": 562, "unit": "nM"}, {"measurement": "Mean IC50 μ/δ Ratio", "setting": "δ opioid receptors", "result": 0.01}, {"measurement": "IC50", "setting": "μ opioid receptors", "result": 3.7, "unit": "nM"}]}, {"smiles": "Cc1cc(O)cc(C)c1C[C@H](N)C(=O)NCC(C)(C)NC(=O)[C@H](Cc1ccccc1)NC(=O)OCc1ccccc1", "note": "[Example 26, Phenylmethyl[1S-[[[2-[[2S-amino-3-(4-hydroxy-2,6-dimethylphenyl)-1-oxopropyl]amino]-1,1-dimethylethyl1-amino]carbonyl]-2-phenylethyl]carbamate, monohydrochloride]", "values": [{"measurement": "IC50", "setting": "δ opioid receptors", "result": 29.8, "unit": "nM"}, {"measurement": "Mean IC50 μ/δ Ratio", "setting": "δ opioid receptors", "result": 0.6}, {"measurement": "IC50", "setting": "μ opioid receptors", "result": 19, "unit": "nM"}]}, {"smiles": "C=CCNC(=O)N[C@@H](Cc1ccccc1)C(=O)NCC(C)(C)NC(=O)[C@@H](N)Cc1c(C)cc(O)cc1C", "note": "[Example 28, αS-amino-N-[1,1-dimethyl-2-[1-oxo-3-phenyl-2S-[(2-propenylamino)carbonyl]amino]propyl]amino]ethyl]-4-hydroxy-2,6-dimethylbenzenepropanamide, monohydrochloride]", "values": [{"measurement": "IC50", "setting": "δ opioid receptors", "result": "~2", "unit": "nM"}, {"measurement": "IC50", "setting": "μ opioid receptors", "result": "< 10", "unit": "nM"}]}, {"smiles": "Cc1cc(O)c(C)c(C)c1C[C@H](N)C(=O)NC(C)(C)CNC(=O)[C@H](Cc1ccccc1)NC(=O)OCc1ccccc1", "note": "[Example 30, Phenylmethyl[1S[[[2-[[2S-amino-3-(4-hydroxy-2,3,6-trimethylphenyl)-1-oxopropyl]amino]-2-methylpropyl]amino]carbonyl]-2-phenylethyl]carbamate, hydrochloride]", "values": [{"measurement": "IC50", "setting": "δ opioid receptors", "result": 100, "unit": "nM"}, {"measurement": "IC50", "setting": "μ opioid receptors", "result": "< 10", "unit": "nM"}]}, {"smiles": "Cc1cc(O)c(C)c(C)c1C[C@@H](N)C(=O)NC(C)(C)CNC(=O)[C@H](Cc1ccccc1)NC(=O)OCc1ccccc1", "note": "[Example 31, Phenylmethyl[1S[[[2-[[2R-amino-3-(4-hydroxy-2,3,6-trimethylphenyl) -1-oxopropyl]amino]-2-methylpropyl]amino]carbonyl1-2-phenylethyl]carbamate, hydrochloride]", "values": [{"measurement": "IC50", "setting": "δ opioid receptors", "result": "> 100", "unit": "nM"}, {"measurement": "IC50", "setting": "μ opioid receptors", "result": 100, "unit": "nM"}]}, {"smiles": "Cc1cc(O)cc(C)c1C[C@H](N)C(=O)NC(C)(C)CNC(=O)[C@H](Cc1ccccc1)NC(=O)NCc1ccccc1", "note": "[Example 33, αS-amino-N-[1,1-dimethyl-2-[[1-oxo-3-phenyl-2S-[[[(phenylmethyl)amino]carbonyl]amino]propyl]-amino]ethyl]-4-hydroxy-2,6-dimethylbenzeneprooanamide, hydrochloride]", "values": [{"measurement": "IC50", "setting": "δ opioid receptors", "result": "~2", "unit": "nM"}, {"measurement": "IC50", "setting": "μ opioid receptors", "result": "< 10", "unit": "nM"}]}, {"smiles": "CCOC(=O)CNC(=O)N[C@@H](Cc1ccccc1)C(=O)NCC(C)(C)NC(=O)[C@@H](N)Cc1c(C)cc(O)cc1C", "note": "[Example 35, hydrochloride]", "values": [{"measurement": "IC50", "setting": "δ opioid receptors; [1]", "result": "~2", "unit": "nM"}, {"measurement": "IC50", "setting": "μ opioid receptors; [2]", "result": "< 10", "unit": "nM"}]}, {"smiles": "CC(=O)N[C@@H](Cc1ccccc1)C(=O)NC(C)(C)CNC(=O)[C@@H](N)Cc1c(C)cc(O)cc1C", "note": "[Example 39, αS-(Acetylamino)-N-[2-[[2S-amino-3-(4-hydroxy-2,6-dimethylphenyl)-1-oxopropyl]amino]-1,1-dimethylethyl]-benzenepropanamide, monohydrochloride]", "values": [{"measurement": "IC50", "setting": "δ opioid receptors", "result": 7.8, "unit": "nM"}, {"measurement": "Mean IC50 μ/δ Ratio", "setting": "δ opioid receptors", "result": 0.6}, {"measurement": "IC50", "setting": "μ opioid receptors", "result": 4.7, "unit": "nM"}]}, {"smiles": "CC(=O)N[C@@H](Cc1c(C)cccc1C)C(=O)NCCNC(=O)[C@@H](N)Cc1ccc(O)cc1", "note": "[Example 51, αS-(Acetylamino)-N-[2-[[2S-amino-3-(4-hydroxyphenyl)-1-oxopropyl]amino]ethyl]-2,6-dimethylbenzenepropanamide. hydrochloride]", "values": [{"measurement": "IC50", "setting": "δ opioid receptors", "result": "> 50", "unit": "nM"}]}, {"smiles": "CC(=O)N[C@@H](Cc1ccccc1)C(=O)Nc1cccc(NC(=O)[C@@H](N)Cc2c(C)cc(O)cc2C)c1", "note": "[Example 57, αS-(Acetylamino)-N-[3[[[2S-amino-3-[4-hydroxy-2,6-dimethylphenyl]-1-oxopropylamino]phenyl]benzenepropanamide, hydrochloride]", "values": [{"measurement": "IC50", "setting": "δ opioid receptors", "result": 100, "unit": "nM"}]}]}
